Experimental data published in US9750718B2, “Methods of treating hepatic fibrosis and associated diseases by regulating Rev-ERB activity” (The Charlotte-Mecklenburg Hospital Authority, priority 2012, dated 2017).

Key:
Rev-erbα [1] = test: Rev-erbα protein expression in HSCs under pro- and anti-fibrogenic factors (Western blot); format: cell-based, rat
Protocol: (§1) Primary rat HSCs were isolated by pronase/collagenase perfusion digestion followed by density gradient centrifugation with Optiprep. Media was replaced every other day to replenish Rev-erbα modulator SR6452, which was present at a 10 μM concentration. Cells were treated with MDIR mixture (IBMX, dexamethasone, insulin, rosiglitazone), TGFβ, or DMSO (vehicle). Some experiments were performed with the human HSC cell line, LX-2.
FIG. 2B show results from primary HSCs that were treated with pro-fibrogenic factor TGFβ (5 ng/ml) or myosin inhibitors blebbistatin (Bleb) or BDM (2,3-Butanedione monoxime) for 48 hrs. Cells were harvested for protein and Western blots performed to detect Rev-erbα.

[2] = test system: CCl4-induced liver fibrosis; test: CCl4-induced liver fibrosis mouse model (herovici histology, qRT-PCR of whole liver); format: in vivo
Protocol: Male C57BL/6 mice (age 9 weeks) were injected intraperitoneally with carbon tetrachloride (CCl4) in sterile olive oil (1 μl CCl4/g body weight) twice a week for 5 weeks. Three weeks after initiation of CCl4 treatment, SR9009 (EMD Millipore, dissolved in DMSO) was administered 5 times a week at a dose of 0.1 mg/g body weight for two weeks. Mice were sacrificed 72 hours after the last dose of SR9009 and livers were harvested for further analysis. For histology studies, livers of the right and left lobes were fixed in 10% formalin, embedded in paraffin, sectioned, and stained with herovici to detect collagen deposition. For gene expression studies, total RNA was extracted from whole liver homogenates, and qRT-PCR performed to detect various markers, including αSMA, Col1α1, Col1α2, tenascin C, and connective tissue growth factor.

primary rat HSCs [3] = test: ECM gene expression by qRT-PCR in primary HSCs; format: cell-based; details: SR6452 10 μM, day Q to day 5 or day 9 to day 12
Protocol: (§2) A series of experiments were conducted to determine the functional role of Rev-erbα in HSC transdifferentiation. In these experiments, culture-activated primary rat HSCs and human LX-2 cells were used. To determine the effect of Rev-erbα on HSC transdifferentiation and contraction, cells were treated with a specific synthetic modulator, SR6452 (10 μM). mRNA and protein expression were determined by qRT-PCR and Western blot, respectively. Changes in cellular morphology, Rev-erb expression/localization and αSMA expression were observed by confocal microscopy. Additionally, cell contractility was assessed.
as §1
(§3) mRNA expression was normalized to 18S rRNA.
FIGS. 4A-B illustrate that the Rev-erbα modulator SR6452 can suppress/decrease ECM gene expression. Primary rat HSCs were cultured from quiescence (day Q) to day 5 (FIG. 4A) or from day 9 to day 12 (FIG. 4B) and treated with Rev-erbα modulator SR6452. qRT-PCR was performed to determine ECM gene expression. DMSO was used as the vehicle control, while SR6452 was used as the Rev-erbα modulator.

Rev-erbα [4] = target: T1, Rev-erbα (Homo sapiens, UniProt P20393); details: cited from earlier work
T1 sequence (P20393 1-614): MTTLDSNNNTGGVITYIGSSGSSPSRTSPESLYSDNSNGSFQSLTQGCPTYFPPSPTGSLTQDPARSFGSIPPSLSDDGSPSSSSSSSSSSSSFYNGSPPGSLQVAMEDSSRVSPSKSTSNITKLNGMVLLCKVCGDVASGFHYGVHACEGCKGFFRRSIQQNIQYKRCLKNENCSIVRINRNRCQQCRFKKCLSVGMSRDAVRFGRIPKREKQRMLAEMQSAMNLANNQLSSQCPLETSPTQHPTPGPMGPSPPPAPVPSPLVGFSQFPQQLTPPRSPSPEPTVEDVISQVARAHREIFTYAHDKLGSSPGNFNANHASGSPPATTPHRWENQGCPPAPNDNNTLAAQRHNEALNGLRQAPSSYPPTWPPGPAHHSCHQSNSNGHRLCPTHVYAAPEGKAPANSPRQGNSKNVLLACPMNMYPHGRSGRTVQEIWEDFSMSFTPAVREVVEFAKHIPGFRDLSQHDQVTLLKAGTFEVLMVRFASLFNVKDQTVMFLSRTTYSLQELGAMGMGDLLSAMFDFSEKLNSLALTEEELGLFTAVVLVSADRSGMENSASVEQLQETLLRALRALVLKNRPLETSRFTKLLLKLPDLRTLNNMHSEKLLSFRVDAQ

LX-2 cells = test: Response of LX-2 cells to Rev-erb agonist, with or without Rev-erbα overexpression; format: cell-based, human
Protocol: Primary rat HSCs were isolated via standard pronase-collagenase digestion and subsequent density gradient centrifugation. LX-2 cells were treated with adipogenic mixture (MDI), 5 ng/ml of recombinant transforming growth factor-beta (TGFβ), or plated on Matrigel™ (growth condition which promotes HSC quiescence) for various time points. Gene expression was determined by RealTime PCR and Western blot. Immunocytochemistry followed by confocal microscopy was used to determine sub-cellular localization. A Rev-erb DNA binding domain (DBD) mutant was produced by standard molecular cloning. LX-2 cells were transfected with expression vectors or controls using Fugene®HD.

primary rat HSCs [5] = test: Cell contraction assay (collagen gel); format: cell-based; details: HSCs embedded in collagen gel, treated 48 hrs, contraction monitored after 72 hrs
Protocol: Primary rat HSCs (day 9, 2-5×10^6 cells/ml) were embedded in a collagen lattice per manufacturer's instructions. Cells were treated with synthetic Rev-erbα ligand SR6452. Collagen gel size change was imaged using a BioSpectrum Imaging System.
(§4) FIGS. 5A-D illustrate that Rev-erbα modulator SR6452 can regulate myofibroblast marker expression and HSC contraction. Primary rat HSCs were cultured from quiescence (day Q) to day 5 (FIG. 5A) or from day 9 to day 12 (FIG. 5B) and treated with Rev-erbα modulator SR6452. qRT-PCR was performed for myofibroblast gene expression. Samples were normalized with 18S rRNA. […] HSCs (day 5) were embedded in a collagen gel and treated as indicated for 48 hrs. Gels were then released from plastic surface and contraction monitored after 72 hrs. Materials used were DMSO (vehicle control), SR6452, Rev-erb modulator; and BDM (2,3-Butanedione monoxime), myosin inhibitor.

primary rat HSCs [6] = test: Adipogenesis in culture-activated primary HSCs (Oil Red O staining, qRT-PCR of adipogenic factors); format: cell-based
Protocol: as §2, §1, §3
FIGS. 3A-B illustrates that modulation of Rev-erbα activity can regulate adipogenesis. Primary HSCs were culture-activated for 5 days (A) or 15 days (B). Cells were treated with vehicle (DMSO, open bar), or the Rev-erbα modulator SR6452 ([…], purple bar) for the days indicated. The medium was changed every 48 hrs. FIG. 3A provides a chart summarizing the amount of PPARγ, SREBP1, and Lep mRNA on day 5.

primary rat HSCs [7] = test: Myofibroblast marker expression and morphology (qRT-PCR, αSMA immunocytochemistry); format: cell-based
Protocol: as §2, §3
Prior to transfection, culture-activated HSCs (for varying days of activation) were seeded onto glass coverslips. Cells were fixed with 4% paraformaldehyde and stained with anti-αSMA antibody, a marker of HSC activation. Cells were imaged using a Zeiss confocal microscope. The fluorescence indicates Rev-erb or αSMA expression.
as §4

[8] = qRT-PCR whole liver, CCl4 + SR9009 0.1 mg/g
[9] = SR6452 10 μM, mRNA by qRT-PCR, day 5

TGFβ
cytoplasmic Rev-erbα (Rev-erbα [1]; TGFβ treatment): stabilized | Rev-erbα protein expression (Rev-erbα [1]; Western blot, TGFβ 5 ng/ml 48 hrs, MDIR or matrigel through day 4): increased

CCOC(=O)N1CCC(CN(Cc2ccc(Cl)cc2)Cc2ccc([N+](=O)[O-])s2)C1 (stereo not shown) [SR9009]
liver architecture and collagen deposition (herovici stain) ([2]; C57BL/6 mice, CCl4 5 weeks, SR9009 0.1 mg/g 5 times a week for two weeks): essentially normal liver architecture and amount of collagen deposition | CCl4-mediated liver fibrosis ([2]; mice, histological and expression data): effective reverses | Col1α1 expression in liver [2, 8]: down to almost normal levels | Col1α2 expression in liver [2, 8]: down to almost normal levels | αSMA expression in liver [2, 8]: down to almost normal levels

CC(C)(C)OC(=O)CN(Cc1ccc(Cl)cc1)Cc1ccc([N+](=O)[O-])s1 [SR6452, 1,1-Dimethylethyl-N-[(4-chlorophenyl)methyl]-N-[(5-nitro-2-thienyl)methyl]) glycinate]
Type I collagen expression (primary rat HSCs [3]): significantly down-regulated | fibronectin expression (primary rat HSCs [3]): significantly down-regulated | tenascin C expression (primary rat HSCs [3]): significantly down-regulated | recruitment of nuclear receptor co-repressor (NCoR) peptide to Rev-erbα (Rev-erbα [4]): enhances recruitment | EC50 (Rev-erbα [4]; read-out: EC50 (synthetic Rev-erb agonist)): 250 nM | response to Rev-erb agonist (LX-2 cells; LX-2 cells overexpressing Rev-erbα): sensitive | response to Rev-erb agonist (LX-2 cells; LX-2 cells without Rev-erbα overexpression): non-responsive | HSC contraction (primary rat HSCs [5]): impeded | lipid content in activated HSCs (primary rat HSCs [6]; SR6452 10 μM, Oil Red O, day 15): increased | PPARγ expression (primary rat HSCs [6]; [9]): up-regulated | SREBP1 expression (primary rat HSCs [6]; [9]): up-regulated | HSC adipogenesis (primary rat HSCs [6]; exposure of quiescent HSCs): promoted | major regulatory and structural genes controlling myofibroblast contraction (primary rat HSCs [7]; SR6452 10 μM, qRT-PCR normalized to 18S rRNA): repressive effects | cell morphology (primary rat HSCs [7]; day 9 HSCs treated 72 hrs, αSMA/DAPI immunocytochemistry): slightly rounded/folded cytoplasm with disoriented actin fibers | effect on HSC activation (primary rat HSCs [7]; overall conclusion of Example 1): suppressive effect
